This note sets out measurements from patent EP0565593B1, “REDUCING PESTICIDAL INTERACTIONS IN CROPS” (priority 1990, dated 1992).

The assay deals with Velvetleaf (VELE). Briefly: Greenhouse test Procedure VI (Examples 59-61; Tables 58-60). It is filed as in vivo, Abutilon theophrasti. Conditions: Antidote + Biocide No. 1 in furrow. The text has this:
This procedure describes interaction among herbicide, biocide and antidote when the herbicide is incorporated in a soil cover layer and the biocide and the antidote are applied in a soil furrow containing crop seed before emergence of the crop. The soil and seeding depth were described in Procedure IV. A first container was designated as an untreated control, a second container was designated as a herbicide control, a third container was designated as a herbicide + biocide control and a fourth container as a herbicide + biocide + antidote test container. The biocide and antidote were formulated as granules. The biocide was applied to the soil furrows of the third and fourth containers at an application rate of 1.1 mg of active compound per cm of row. The antidote was applied to the soil furrow of the fourth container at an application rate of 0.37 mg of active compound per cm of row. A measured amount of the herbicide dispersed or dissolved in acetone was applied to a measured quantity of soil. The quantity of soil treated with the herbicide was thoroughly mixed to incorporate the herbicide. Samples of this soil were used to cover the seed beds of the second, third and fourth containers. For each test series, the seed bed of the first container was likewise covered by a soil layer not treated with herbicide and without biocide or antidote in the soil furrow.
The containers were then placed on a bench in a greenhouse. Watering was by subirrigation plus overhead irrigation after the plants emerged. All treatments were run in duplicate. Plant response was observed according to Procedure IV. Variations in this procedure will be noted in the examples.
The procedure used in this example involved the PPI application of biocide and safener as described in general Procedure VI above. The "primary" herbicide in this test was MON-12000 (Herbi-cide No. 1) in admixture with other herbicides designated as "co-herbicides", which included LASSO® (co-herbicide B); DUAL® (C); acetochlor (A); EPTAM® (D); butylate (E) and PURSUIT® (K).
The in-furrow treatments with blended COUNTER 15G and antidote mixtures was as described in above examples. MON-12000 and the co-herbicides were formulated in acetone and applied as tank mixtures, incorporated into Dupo silt loam soil with a rotary drum mixer. Subsamples were used to cover seeded and in-furrow treated 10.2 cm pots. Pots were placed on greenhouse benches and subirrigated. Plant responses were observed thirteen days after PPI initiation. Test results (average of two replications) are shown in Table 58, wherein giant foxtail (GIFT) was used in place of shattercane.
This test was conducted in the same manner used in Example 59. All biocide and antidote components were the same and in these tests XRD-498 (Herbicide No. 21) was the prime herbicide. Co-herbicides are shown in Table 59 together with test data.
In one other test conducted as described in the preceding examples in this series of tests, the herbicide PURSUIT® was used as the primary herbicide (in the context of this invention) together with the same insecticide and safeners as above and the co-herbicides shown in Table 60, together with test results.

As to `N#CCOc1ccc(Cl)c2cccnc12` [compound 33], the “% Inhibition VELE” value (Herbicide No. 6 0.14 Kg/Ha PPI) is 70%; the “% Inhibition VELE” value (Herbicide No. 11 0.0044 Kg/Ha PPI) worked out at 65%; the “% Inhibition VELE” value (Herbicide No. 12 0.0044 Kg/Ha PPI) is recorded as 60%; the “% Inhibition VELE” value (Herbicide No. 13 0.0011 Kg/Ha PPI) is given as 20%; the “% Inhibition VELE” value (Herbicide No. 13 0.0022 Kg/Ha PPI) was determined as 50%; the “% Inhibition VELE” value (Herbicide No. 14 0.07 Kg/Ha PPI) came to 85%. Besides, the “% Inhibition VELE” value by setting is: (Herbicide No. 16 0.07 Kg/Ha PPI, 13 days) 65%; (Herbicide No. 17 0.14 Kg/Ha PPI, 13 days) 75%; (Herbicide No. 18 0.04 Kg/Ha PPI, 13 days) 40%; (Herbicide No. 20 1.12 Kg/Ha PPI, 13 days) 90%; (Herbicide No. 22 0.28 Kg/Ha PPI, 13 days) 90%; (Herbicide No. 24 0.14 Kg/Ha PPI, 13 days) 95%. For the same compound, the “% Inhibition VELE” value by setting is: (Herbicide No. 25 0.14 Kg/Ha PPI, 13 days) 70%; (Herbicide No. 26 2.24 Kg/Ha PPI, 13 days) 50%; (Herbicide No. 28 0.04 Kg/Ha PPI, 13 days) 80%.
